This passage reports IC50 and viability, T/C results from PubChem BioAssay AID2060348 (Molecular Pharmacology Branch, DTP, NCI, 2025).

SMILES strings stand for the structures. “And” between values parts separate entries of the source, which are not always exact repeats. Equal values may be shown once. Where only a bound is given, the exact number is not on record here.

This assay deals with 885724-159-R-J1-PDC spheroids viability. Nature of the assay: Anticancer human tumor 885724-159-R-J1-PDC patient-derived pancreatic adenocarcinoma cell line growth inhibition [TAK]. The settings on record: spheroids with HUVEC and MSC; for viability, T/C: stronger effect = lower value. The text has this:
Combinatorial screen of targeted agents with TAK-243 and ipatasertib in multi-cell type tumor spheroids
A high-throughput screen of multi-cell type tumor spheroids was designed to identify active combinations of targeted small molecules and TAK-243 or ipatasertib. Complex spheroids include a stromal component modeled by human endothelial cells (HUVEC) and fibroblasts modeled by human mesenchymal stem cells (MSCs). The concentration ranges selected for each drug and investigational agent were based upon clinically achievable concentrations if the clinical Cmax of the agent was known.
Compounds. The drugs and investigational agents: TAK-243 (785004), ipatasertib (767898), everolimus (733504), selumetinib (741078), bortezomib (756655), trametinib (758246), ixazomib (758254), vemurafenib (761431), dabrafenib (764134), sapanisertib (764658), alpelisib (765974), and copanlisib (816437), were obtained from the National Cancer Institute (NCI) Developmental Therapeutics Program Chemical Repository. The FDA-approved anticancer drug set is available from the NCI Developmental Therapeutics Program. […] The stock solutions were prepared in dimethyl sulfoxide (DMSO, Sigma-Aldrich, St. Louis, MO, cat. D2650) at 800-fold the tested concentration and stored at -70 degrees C prior to their use. All drugs and investigational agents were tested over a range starting from a high concentration at or near the clinical Cmax and decreasing in half-log increments. If the clinical Cmax for an agent had not been determined, the highest concentration tested was 10 microM.
NCI60 Cell Culture. NCI60 cell lines were obtained from the NCI Developmental Therapeutics Program Tumor Repository. For each lot of cells, the Repository performed Applied Biosystems AmpFLSTR Identifiler testing with PCR amplification to confirm consistency with the published Identifier STR profile for each cell line. Cells were kept in continuous culture for no more than 20 passages. The optimal seeding densities for each of the cell lines at each time point assessed were determined prior to performing the concentration response studies. Briefly, the NCI60 human tumor lines were grown as monolayers in RPMI 1640 medium supplemented with 10% FBS and 2 mmol/L L-glutamine.
An additional 2 lines were from the NCI60 cell line panel including melanomas, MALME-3M and SK-MEL-2. Pooled donor human umbilical vein endothelial cells (HUVEC, Lonza, cat. CC-2519) and human mesenchymal stem cells (hMSC, Lonza, cat. PT-2501) were purchased from Lonza (Walkersville, MD).
PDMR cell lines were grown in complete medium (DC medium): Dulbecco's modified Eagle's medium (DMEM)/F12 supplemented with 5% fetal bovine serum (FBS), 2 mM L-glutamine, 100 U/mL penicillin and 100 µg/ml streptomycin, 0.4 µg/ml hydrocortisone, 10 ng/ml epidermal growth factor (EGF) recombinant human protein, 24 µg/mL adenine, and 0.1 mg/mL primocin. During culture from frozen stock vials, PDMR cells were cultured in the same medium containing 10 µM Y-27632 (see Table 3). The PDCs were cultured in complete DMEM/F12 media without 10 microM Y-27632 dihydrochloride for at least two passages prior to the screen. The pooled donor HUVEC and hMSC were cultured in endothelial cell growth medium 2 (PromoCell, Heidelberg, Germany, cat. C-22011) and mesenchymal stem cell growth medium 2 (PromoCell, cat. C-28009), respectively. For all experiments, HUVEC and hMSC were used at passages </=5.
For the pre-screen, cell seeding densities were determined from a titration spanning the range from 5,000 to 313 cells per well. The mct-spheroids including 60% malignant cells, 25% HUVEC and 15% MSC dispensed as a mixture into U-bottom Ultra-Low Attachment 384-well plates (Corning, NY)
High-throughput Drug Combination Screening.
Prior to their inoculation into 384-well plates, malignant cells, HUVEC, and hMSC were removed from T flasks using TrypLE express (Thermo Fisher Scientific, cat. 12605036) and harvested by centrifugation for 5 min at 233 x g. […]
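Further: spheroids exposed to drugs for seven days.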

For orientation: IC50 means the concentration that gives 50% inhibition. What is called viability, T/C is the result in the treated group divided by that in the control group, in per cent. For the molecule `CC(C)(C)c1nc(-c2cccc(NS(=O)(=O)c3c(F)cccc3F)c2F)c(-c2ccnc(N)n2)s1` + CC(C)NCC(C(=O)N1CCN(c2ncnc3c2C(C)CC3O)CC1)c1ccc(Cl)cc1, the IC50 is, setting by setting: (curve of first compound, second compound 0.3 µM) > 10 µM; (curve of first compound, second compound 0.949 µM) > 10 µM; (curve of first compound, second compound 3 µM) > 10 µM; (curve of first compound, second compound 9.49 µM) 8.87 µM; (curve of first compound, second compound 30 µM) < 0.0316 µM. The viability, T/C was 85.2% (second compound 0.3 µM, first compound 0.0316 µM); 101% (second compound 0.3 µM, first compound 0.1 µM); 112% (second compound 0.3 µM, first compound 0.316 µM); 134% (second compound 0.3 µM, first compound 1 µM); 134% (second compound 0.3 µM, first compound 3.16 µM); 121% (second compound 0.3 µM, first compound 10 µM). The viability, T/C runs as follows: (second compound 0.949 µM, first compound 0.0316 µM) 72.3%; (second compound 0.949 µM, first compound 0.1 µM) 100%; (second compound 0.949 µM, first compound 0.316 µM) 111%; (second compound 0.949 µM, first compound 1 µM) 117%; (second compound 0.949 µM, first compound 3.16 µM) 92.2%; (second compound 0.949 µM, first compound 10 µM) 80.5%. For the same molecule, the viability, T/C runs as follows: (second compound 3 µM, first compound 0.0316 µM) 68.2%; (second compound 3 µM, first compound 0.1 µM) 90.7%; (second compound 3 µM, first compound 0.316 µM) 94%; (second compound 3 µM, first compound 1 µM) 96%; (second compound 3 µM, first compound 3.16 µM) 73.4%; (second compound 3 µM, first compound 10 µM) 57.6%. Also, the viability, T/C was 57.1% (second compound 9.49 µM, first compound 0.0316 µM); 71.3% (second compound 9.49 µM, first compound 0.1 µM); 77% (second compound 9.49 µM, first compound 0.316 µM); 76.1% (second compound 9.49 µM, first compound 1 µM); 56.1% (second compound 9.49 µM, first compound 3.16 µM); 49.3% (second compound 9.49 µM, first compound 10 µM). Besides, the viability, T/C runs as follows: (second compound 30 µM, first compound 0.0316 µM) 37.7%; (second compound 30 µM, first compound 0.1 µM) 41.3%; (second compound 30 µM, first compound 0.316 µM) 46.9%; (second compound 30 µM, first compound 1 µM) 42.7%; (second compound 30 µM, first compound 3.16 µM) 41.6%; (second compound 30 µM, first compound 10 µM) 37.7%.
For the molecule `Cc1nc(NC(=O)N2CCCC2C(N)=O)sc1-c1ccnc(C(C)(C)C(F)(F)F)c1` (configuration not stated), the viability, T/C by setting is: (compound 0.0316 µM) 100% and 108%; (compound 0.1 µM) 91.1% and 88.8%; (compound 0.316 µM) 72.9% and 70.5%; (compound 1 µM) 55.2% and 64.1%; (compound 3.16 µM) 42.3% and 43.4%; (compound 10 µM) 26.8% and 29.2%. In addition, the 50% inhibitory concentration (IC50) (curve of compound) is 1.59 µM and 1.99 µM.
